Measured values reported in PubChem BioAssay AID2060886 (Molecular Pharmacology Branch, DTP, NCI, 2025).
pIC50: −log10 of the molar value.

System: 653999-131-R-J2-PDC complex spheroids, growth inhibition
Test: Anticancer human tumor 653999-131-R-J2-PDC patient-derived lung adenocarcinoma cell line growth inhibition [RAS]
Conditions: for pIC50: curve of first compound; for viability, T/C: stronger effect = lower value
Summary of the method: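 Multi-cell-type spheroids: tumor cells plus HUVEC endothelial cells and mesenchymal stem cells. RAS-pathway inhibitors were combined with targeted agents, each dosed in half-log steps down from clinical Cmax, or from 10 microM when Cmax was unknown.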

[1] = second compound 0.00316 µM, first compound 0.0316 µM
[2] = second compound 0.00316 µM, first compound 0.1 µM
[3] = second compound 0.00316 µM, first compound 0.316 µM
[4] = second compound 0.00316 µM, first compound 1 µM
[5] = second compound 0.01 µM, first compound 0.0316 µM
[6] = second compound 0.01 µM, first compound 0.1 µM
[7] = second compound 0.01 µM, first compound 0.316 µM
[8] = second compound 0.01 µM, first compound 1 µM
[9] = second compound 0.0316 µM, first compound 0.0316 µM
[10] = second compound 0.0316 µM, first compound 0.1 µM
[11] = second compound 0.0316 µM, first compound 0.316 µM
[12] = second compound 0.0316 µM, first compound 1 µM
[13] = second compound 0.1 µM, first compound 0.0316 µM
[14] = second compound 0.1 µM, first compound 0.1 µM
[15] = second compound 0.1 µM, first compound 0.316 µM
[16] = second compound 0.1 µM, first compound 1 µM
[17] = second compound 0.316 µM, first compound 0.0316 µM
[18] = second compound 0.316 µM, first compound 0.1 µM
[19] = second compound 0.316 µM, first compound 0.316 µM
[20] = second compound 0.316 µM, first compound 1 µM
[21] = second compound 1 µM, first compound 0.0316 µM
[22] = second compound 1 µM, first compound 0.1 µM
[23] = second compound 1 µM, first compound 0.316 µM
[24] = second compound 1 µM, first compound 1 µM
[25] = second compound 0.0316 µM, first compound 3.16 µM
[26] = second compound 0.0316 µM, first compound 10 µM
[27] = second compound 0.1 µM, first compound 3.16 µM
[28] = second compound 0.1 µM, first compound 10 µM
[29] = second compound 0.316 µM, first compound 3.16 µM
[30] = second compound 0.316 µM, first compound 10 µM
[31] = second compound 1 µM, first compound 3.16 µM
[32] = second compound 1 µM, first compound 10 µM
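Also: spheroids exposed to the agents for seven days before the readout.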

For `O=C(c1ccc(F)c(F)c1Nc1ccc(I)cc1F)N1CC(O)([C@@H]2CCCCN2)C1` + C=CC(=O)N1CCN(c2nc(OCC3CCCN3C)nc3c(F)c(-c4nc(N)cc(C)c4C(F)(F)F)c(Cl)cc23)C(C)C1, the pIC50 (second compound 0.00316 µM) was 7.02, the pIC50 (second compound 0.01 µM) was 7.31 and the pIC50 (second compound 0.0316 µM) was 6.95. The pIC50 (second compound 0.1 µM) was 7.20, the pIC50 (second compound 0.316 µM) was 7.06 and the pIC50 (second compound 1 µM) was 7.15. For the same compound, the viability, T/C (second compound 0.00316 µM, first compound 0.00316 µM) was 86.1%, the viability, T/C (second compound 0.00316 µM, first compound 0.01 µM) was 83.1% and the viability, T/C [1] was 63.8%. For the same compound, the viability, T/C [2] was 53.6%, the viability, T/C [3] was 25% and the viability, T/C [4] was 10.2%. For the same compound, the viability, T/C (second compound 0.01 µM, first compound 0.00316 µM) was 94.1%, the viability, T/C (second compound 0.01 µM, first compound 0.01 µM) was 83.3% and the viability, T/C [5] was 53.2%. It also gave a viability, T/C [6] of 37.7%, a viability, T/C [7] of 24.1% and a viability, T/C [8] of 8.42%. For the same compound, the viability, T/C (second compound 0.0316 µM, first compound 0.00316 µM) was 105%, the viability, T/C (second compound 0.0316 µM, first compound 0.01 µM) was 86.6% and the viability, T/C [9] was 74.8%. It also gave a viability, T/C [10] of 57.6%, a viability, T/C [11] of 22.4% and a viability, T/C [12] of 7.31%. It also gave a viability, T/C (second compound 0.1 µM, first compound 0.00316 µM) of 96.9%, a viability, T/C (second compound 0.1 µM, first compound 0.01 µM) of 80.5% and a viability, T/C [13] of 60.6%. It also gave a viability, T/C [14] of 40.5%, a viability, T/C [15] of 29% and a viability, T/C [16] of 9.39%. It also gave a viability, T/C (second compound 0.316 µM, first compound 0.00316 µM) of 84.4%, a viability, T/C (second compound 0.316 µM, first compound 0.01 µM) of 69.9% and a viability, T/C [17] of 65.8%. The viability, T/C [18] was 51.2%, the viability, T/C [19] was 24.5% and the viability, T/C [20] was 9.08%. For the same compound, the viability, T/C (second compound 1 µM, first compound 0.00316 µM) was 100%, the viability, T/C (second compound 1 µM, first compound 0.01 µM) was 79% and the viability, T/C [21] was 60.3%. It also gave a viability, T/C [22] of 48.8%, a viability, T/C [23] of 25.8% and a viability, T/C [24] of 11%.

For `Cc1nc(N2CCC3(CC2)COC(C)C3N)c(CO)nc1Sc1ccnc(N)c1Cl` (stereo unspecified) + C#Cc1c(F)ccc2cc(O)cc(-c3ncc4c(N5CC6CCC(C5)N6)nc(OCC56CCCN5CC(F)C6)nc4c3F)c12, the pIC50 (second compound 0.0316 µM) was less than 5.00, the pIC50 (second compound 0.1 µM) was less than 5.00 and the pIC50 (second compound 0.316 µM) was less than 5.00. The pIC50 (second compound 1 µM) was 6.71, the pIC50 (second compound 3.16 µM) was greater than 7.50 and the pIC50 (second compound 10 µM) was greater than 7.50. It also gave a viability, T/C [9] of 89.8%, a viability, T/C [10] of 88.9% and a viability, T/C [11] of 74.5%. It also gave a viability, T/C [12] of 69.2%, a viability, T/C [25] of 73.2% and a viability, T/C [26] of 76.2%. It also gave a viability, T/C [13] of 65.3%, a viability, T/C [14] of 62.1% and a viability, T/C [15] of 66%. The viability, T/C [16] was 60%, the viability, T/C [27] was 64.3% and the viability, T/C [28] was 55.2%. It also gave a viability, T/C [17] of 68.4%, a viability, T/C [18] of 52.6% and a viability, T/C [19] of 50.5%. For the same compound, the viability, T/C [20] was 45.9%, the viability, T/C [29] was 74.5% and the viability, T/C [30] was 47.9%. For the same compound, the viability, T/C [21] was 61.8%, the viability, T/C [22] was 52.9% and the viability, T/C [23] was 48.5%. The viability, T/C [24] was 41.1%, the viability, T/C [31] was 30.5% and the viability, T/C [32] was 30.2%. The viability, T/C (second compound 3.16 µM, first compound 0.0316 µM) was 41.9%, the viability, T/C (second compound 3.16 µM, first compound 0.1 µM) was 35.4% and the viability, T/C (second compound 3.16 µM, first compound 0.316 µM) was 32.2%. For the same compound, the viability, T/C (second compound 3.16 µM, first compound 1 µM) was 21.8%, the viability, T/C (second compound 3.16 µM, first compound 3.16 µM) was 17.3% and the viability, T/C (second compound 3.16 µM, first compound 10 µM) was 20.2%. It also gave a viability, T/C (second compound 10 µM, first compound 0.0316 µM) of 27%, a viability, T/C (second compound 10 µM, first compound 0.1 µM) of 13.9% and a viability, T/C (second compound 10 µM, first compound 0.316 µM) of 18.9%. It also gave a viability, T/C (second compound 10 µM, first compound 1 µM) of 11%, a viability, T/C (second compound 10 µM, first compound 3.16 µM) of 8.6% and a viability, T/C (second compound 10 µM, first compound 10 µM) of 9.77%.

For `CC(Nc1ccc2c(c1)OCCn1cc(N3C(=O)OCC3C(F)F)nc1-2)C(N)=O` (stereo unspecified) + C=CC(=O)N1CCN(c2nc(OCC3CCCN3C)nc3c(F)c(-c4nc(N)cc(C)c4C(F)(F)F)c(Cl)cc23)C(C)C1, the pIC50 (second compound 0.00316 µM) was 6.19, the pIC50 (second compound 0.01 µM) was 6.14 and the pIC50 (second compound 0.0316 µM) was 6.20. It also gave a pIC50 (second compound 0.1 µM) of 5.94, a pIC50 (second compound 0.316 µM) of 6.27 and a pIC50 (second compound 1 µM) of 6.24. For the same compound, the viability, T/C [1] was 111%, the viability, T/C [2] was 75.6% and the viability, T/C [3] was 55.9%. The viability, T/C [4] was 51.5%, the viability, T/C (second compound 0.00316 µM, first compound 3.16 µM) was 36.5% and the viability, T/C (second compound 0.00316 µM, first compound 10 µM) was 25.3%. It also gave a viability, T/C [5] of 104%, a viability, T/C [6] of 83.6% and a viability, T/C [7] of 61.1%. The viability, T/C [8] was 42.2%, the viability, T/C (second compound 0.01 µM, first compound 3.16 µM) was 40.4% and the viability, T/C (second compound 0.01 µM, first compound 10 µM) was 26.5%. For the same compound, the viability, T/C [9] was 96.5%, the viability, T/C [10] was 70.1% and the viability, T/C [11] was 58.9%. The viability, T/C [12] was 44.9%, the viability, T/C [25] was 38.5% and the viability, T/C [26] was 26%. It also gave a viability, T/C [13] of 85.6%, a viability, T/C [14] of 66.3% and a viability, T/C [15] of 68.8%. It also gave a viability, T/C [16] of 50.7%, a viability, T/C [27] of 40% and a viability, T/C [28] of 21.6%. The viability, T/C [17] was 85.9%, the viability, T/C [18] was 78.1% and the viability, T/C [19] was 55.1%. For the same compound, the viability, T/C [20] was 40.9%, the viability, T/C [29] was 37.5% and the viability, T/C [30] was 26.9%. For the same compound, the viability, T/C [21] was 87.9%, the viability, T/C [22] was 67.6% and the viability, T/C [23] was 60.5%. For the same compound, the viability, T/C [24] was 37.9%, the viability, T/C [31] was 41.3% and the viability, T/C [32] was 28.7%.
